Data from patent US20220388962A1 (Biohaven Therapeutics Ltd., priority 2019, published 2022).

Target: T1, TDP-43 (Homo sapiens, UniProt Q13148)
Assay: TDP-43-DNA alpha-screen assay (bt-TAR-32 displacement)
Type: binding
Conditions: bt-TAR-32 0.125 nM, 15 ng/ml TDP-43
How it was run: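 GST-TDP-43 (15 ng/ml final) on anti-GST acceptor beads pre-incubated 30 min at 23 °C with compound (50 to 0.02 μM, half-log) in 25 mM Tris pH 7.4, 0.1% BSA, 0.1% Triton X-100. Biotinylated TAR-32 DNA (0.125 nM final) on streptavidin donor beads added, 90 min at 23 °C dark; AlphaScreen signal fitted for IC50.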

T1 sequence (Q13148 whole entry): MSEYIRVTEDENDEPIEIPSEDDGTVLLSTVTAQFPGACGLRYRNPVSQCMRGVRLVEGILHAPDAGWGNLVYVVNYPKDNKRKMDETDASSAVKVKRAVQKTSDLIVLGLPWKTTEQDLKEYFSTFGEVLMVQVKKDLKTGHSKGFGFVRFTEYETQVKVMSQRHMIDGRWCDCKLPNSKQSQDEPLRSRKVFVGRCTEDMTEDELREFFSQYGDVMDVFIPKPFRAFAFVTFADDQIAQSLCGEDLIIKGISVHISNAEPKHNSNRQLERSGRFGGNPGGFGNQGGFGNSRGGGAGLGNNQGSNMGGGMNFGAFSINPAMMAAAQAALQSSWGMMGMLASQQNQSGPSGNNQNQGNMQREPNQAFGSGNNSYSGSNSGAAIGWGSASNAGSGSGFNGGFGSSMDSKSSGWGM

Compound	IC50 [µM]
CN(C)CCCNc1cc(-c2ccc(N3CCN(C)CC3)cc2)nc2ccccc12 [Example 110]	0.31
CC(C)C(N)C(=O)NC(C(=O)N1CCN(c2ccc(-c3cc(NCCCN(C)C)c4ccccc4n3)cc2)CC1)C(C)C (centres unmarked) [Example 111]	0.42
COc1ccc(-c2cc(N[C@H]3C[C@@H](N)C3)c3ccccc3n2)cc1 [Example 112]	0.49
NCCCNc1cc(-c2ccc3ncccc3c2)nc2ccccc12 [Example 113]	0.57
CN(C)CCCNc1cc(-c2ccc(N3CCN(C)C(=O)C3)cc2)nc2ccccc12 [Example 114]	0.6
NCCCNc1cc(-c2ccc3c(c2)CCO3)nc2ccccc12 [Example 116]	0.64
[2H]C([2H])([2H])Oc1ccc(-c2cc(NCCCN)c3ccccc3n2)cc1 [Example 117]	0.76
CN(C)CCCNc1cc(-c2ccc3ncccc3c2)nc2ccccc12 [Example 118]	0.8
NCCCNc1cc(C2=CCNCC2)nc2ccccc12 [Example 120]	0.87
COc1ccc(-c2cc(NC3CCNCC3)c3ccccc3n2)cc1 [Example 122]	1.17
[2H]C([2H])([2H])Oc1ccc(-c2cc(NCCCN(C)C)c3ccccc3n2)cc1 [Example 123]	1.21
CN(C)CCCNc1cc(-c2ccc3occc3c2)nc2ccccc12 [Example 124]	1.28
Cn1cc(-c2cc(NCCCN)c3ccccc3n2)cn1 [Example 125]	1.3
CN(C)CCCNc1cc(-c2cnn(C3CC3)c2)nc2ccccc12 [Example 127]	1.51
NCCCNc1cc(C2=CCCCC2)nc2ccccc12 [Example 128]	1.57
COc1ccc(-c2cc(NCCCN(C)C(=O)[C@H](C)N)c3ccccc3n2)cc1 [Example 129]	1.66
[2H]C([2H])([2H])N(CCCNc1cc(-c2ccc(OC)cc2)nc2ccccc12)C([2H])([2H])[2H] [Example 130]	1.78

Compound	IC50 [µM]
NCCCNc1cc(-c2ccco2)nc2ccccc12 [Example 131]	2.55
COc1ccc(-c2cc(NCCCN(C)C)c3ccccc3n2)cc1 [Example 132]	2.72
COc1ccc(-c2cc(NCCCN(C)C)c3c(F)cccc3n2)cc1 [Example 133]	2.9
NCCCNc1cc(-c2cnn(CCN3CCOCC3)c2)nc2ccccc12 [Example 134]	2.94
COc1ccc(-c2cc(NCCCO)c3ccccc3n2)cc1 [Example 135]	31.7
COc1ncc(-c2cc(NCCCN(C)C)c3ccccc3n2)cn1 [Example 136]	38.5
Cc1cc(NCCCN(C)C)c2ccccc2n1 [Example 137]	45.6
COc1ccc(-c2cc(NCCC(=O)N(C)C)c3ccccc3n2)cc1 [Example 138]	52.6
COc1ccc(-c2cc(NCCCN(C)C)c3ccccc3n2)cn1 [Example 139]	6.51
COc1ccc(-c2cc(NCCCN(C)C)c3cc4c(cc3n2)OC(F)(F)O4)cc1 [Example 140]	6.56
COc1ccc(-c2cc(NC3CCC(F)(F)CC3)c3ccccc3n2)cc1 [Example 141]	64.5
COc1ccc(-c2cc(NCCC(=O)OC(C)(C)C)c3ccccc3n2)cc1 [Example 142]	65.3
COc1ccc2nc(C(F)(F)F)cc(NCCCN(C)C)c2c1 [Example 143]	79.4
COc1cc2c(NCCCN(C)C)ccnc2cc1OCCCN1CCCC1 [Example 144]	0.01
COc1cc2nccc(NCCCN(C)CCCN)c2cc1OC [Example 146]	0.41
COc1cc2nccc(NCCCN(C)CCCN)c2cc1OC [Example 147, N^1-(3-aminopropyl)-N^3-(6,7-dimethoxyquinolin-4-yl)-N^1-methylpropane-1,3-diamine]	0.84

Target: T1, TDP-43
Assay: not given
Conditions: using bt-(TG)6, not bt-TAR32; cited from earlier work

Compound	activity in TDP-43 alpha-screen
COc1ccc(-c2cc(NCCCN(C)C)c3ccccc3n2)cc1 [(XXVIII)]	active

Target: T1, TDP-43
Assay: not given
Conditions: previously reported; cited from earlier work

Compound	caspase-7 cleavage of TDP-43
COc1ccc(-c2cc(NCCCN(C)C)c3ccccc3n2)cc1 [(XXVIII)]	promoted caspase-7 cleavage of TDP-43
